# Earlier results, collected in PubChem BioAssay AID1259409 (Chemical Carcinogenesis Research Information System (CCRIS), 2018).
# Test system: rodent chemically induced tumor inhibition, incidence and multiplicity
# Experiment: CCRIS tumor inhibitor studies
smiles,measurement,setting,value
CC1=C(/C=C/C(C)=C/C=C/C(C)=C\C(=O)O)C(C)(C)CCC1,"tumour outcome (control, treated, inhibition, significance)","Carcinogen: N-BUTYL-N-(4-HYDROXYBUTYL)NITROSAMINE, 3817-11-6, Dose [Inhibitor]: 200 MG/KG DIET DAILY STARTING 7 D AFTER LAST CARCINOGEN DOSE AND CONTINUING THROUGH THE END OF STUDY (STUDY DURATION: 6, Route [Inhibitor]: ORAL, Species: MOUSE, Strain/Sex: C57BL/MALE, Target Tissue: Type of Lesion: URINARY BLADDER: TRANSITIONAL AND SQUAMOUS CELL CARCINOMA, Dose [Carcinogen]: 7.5 MG 2/WK FOR 6 WK, Promoter: NONE USED","8/24 (33%), 0/19 (0%), 100%, p<0.01"
same,"tumour outcome (control, treated, inhibition, significance)","Carcinogen: N-BUTYL-N-(4-HYDROXYBUTYL)NITROSAMINE, 3817-11-6, Dose [Inhibitor]: 200 MG/KG DIET DAILY STARTING 7 D AFTER LAST CARCINOGEN INTUBATION AND CONTINUING THROUGH THE END OF STUDY (STUDY DURATI, Route [Inhibitor]: ORAL, Species: MOUSE, Strain/Sex: C57BL/MALE, Target Tissue: Type of Lesion: URINARY BLADDER: NEOPLASM (CARCINOMA, NONINVASIVE TRANSITIONAL CELL PAPILLOMA), Dose [Carcinogen]: 10 MG 2/WK FOR 7 WK, Promoter: NONE USED","12/22 (55%), 8/25 (32%), 42%, not significant"
same,outcome,"Carcinogen: N-BUTYL-N-(4-HYDROXYBUTYL)NITROSAMINE, 3817-11-6, Dose [Inhibitor]: 200 MG/KG DIET DAILY STARTING 7 D AFTER LAST CARCINOGEN INTUBATION AND CONTINUING THROUGH THE END OF STUDY (STUDY DURATI, Route [Inhibitor]: ORAL, Species: MOUSE, Strain/Sex: C57BL/MALE, Target Tissue: Type of Lesion: URINARY BLADDER: SQUAMOUS CELL CARCINOMA, Dose [Carcinogen]: 7.5 MG 2/WK FOR 6 WK, Promoter: NONE USED","6/24 (25%), 0/19 (0%), p<0.05"
same,"tumour outcome (control, treated, inhibition, significance)","Carcinogen: N-BUTYL-N-(4-HYDROXYBUTYL)NITROSAMINE, 3817-11-6, Dose [Inhibitor]: 200 MG/KG DIET DAILY STARTING 7 D AFTER LAST CARCINOGEN INTUBATION AND CONTINUING THROUGH THE END OF STUDY (STUDY DURATI, Route [Inhibitor]: ORAL, Species: MOUSE, Strain/Sex: C57BL/MALE, Target Tissue: Type of Lesion: URINARY BLADDER: SQUAMOUS CELL CARCINOMA, Dose [Carcinogen]: 10 MG 2/WK FOR 7 WK, Promoter: NONE USED","6/22 (27%), 5/25 (20%), 26%, not significant"
same,"tumour outcome (control, treated, inhibition, significance)","Carcinogen: N-BUTYL-N-(4-HYDROXYBUTYL)NITROSAMINE, 3817-11-6, Dose [Inhibitor]: 200 MG/KG DIET DAILY STARTING 7 D AFTER LAST CARCINOGEN INTUBATION AND CONTINUING THROUGH THE END OF STUDY (STUDY DURATI, Route [Inhibitor]: ORAL, Species: MOUSE, Strain/Sex: C57BL/MALE, Target Tissue: Type of Lesion: URINARY BLADDER: TRANSITIONAL AND SQUAMOUS CELL CARCINOMA, Dose [Carcinogen]: 10 MG 2/WK FOR 7 WK, Promoter: NONE USED","10/22 (45%), 7/25 (28%), 38%, not significant"
same,"tumour outcome (control, treated, inhibition, significance)","Carcinogen: N-BUTYL-N-(4-HYDROXYBUTYL)NITROSAMINE, 3817-11-6, Dose [Inhibitor]: 240 MG/KG DIET DAILY STARTING 1, 5 OR 9 WK AFTER LAST CARCINOGEN INTUBATION AND CONTINUING THROUGH THE END OF STUDY (STU, Route [Inhibitor]: ORAL, Species: RAT, Strain/Sex: F344/MALE, Target Tissue: Type of Lesion: URINARY BLADDER: TRANSITIONAL CELL CARCINOMA, Dose [Carcinogen]: 100 MG 2/WK FOR 6 WK, Promoter: NONE USED","53%, 47%, 11%, not significant"
same,"tumour outcome (control, treated, inhibition, significance)","Carcinogen: N-BUTYL-N-(4-HYDROXYBUTYL)NITROSAMINE, 3817-11-6, Dose [Inhibitor]: 240 MG/KG DIET DAILY STARTING 1, 5 OR 9 WK AFTER LAST CARCINOGEN INTUBATION AND CONTINUING THROUGH THE END OF STUDY (STU, Route [Inhibitor]: ORAL, Species: RAT, Strain/Sex: F344/MALE, Target Tissue: Type of Lesion: URINARY BLADDER: TRANSITIONAL CELL CARCINOMA, Dose [Carcinogen]: 150 MG 2/WK FOR 6 WK, Promoter: NONE USED","82%, 65%, 21%, p<0.01"
same,"tumour outcome (control, treated, inhibition, significance)","Carcinogen: N-BUTYL-N-(4-HYDROXYBUTYL)NITROSAMINE, 3817-11-6, Dose [Inhibitor]: 240 MG/KG DIET DAILY STARTING 1, 5 OR 9 WK AFTER LAST CARCINOGEN INTUBATION AND CONTINUING THROUGH THE END OF STUDY (STU, Route [Inhibitor]: ORAL, Species: RAT, Strain/Sex: F344/MALE, Target Tissue: Type of Lesion: URINARY BLADDER: TRANSITIONAL CELL CARCINOMA, Dose [Carcinogen]: 200 MG 2/WK FOR 6 WK, Promoter: NONE USED","94%, 74%, 21%, p<0.001"
same,"tumour outcome (control, treated, inhibition, significance)","Carcinogen: N-BUTYL-N-(4-HYDROXYBUTYL)NITROSAMINE, 3817-11-6, Dose [Inhibitor]: 240 MG/KG DIET DAILY STARTING 1 WK AFTER LAST CARCINOGEN DOSE AND CONTINUING FOR DURATION OF STUDY (STUDY DURATION: 6 MO, Route [Inhibitor]: ORAL, Species: RAT, Strain/Sex: F344/MALE, Target Tissue: Type of Lesion: BLADDER: TRANSITIONAL CELL CARCINOMA (HIGH GRADE), Dose [Carcinogen]: 200 MG IN 0.5 ML OF 20% ETHANOL 2/WK FOR 6 WK, Promoter: NONE USED","9/22 (41%), 4/21(19%), 54%, p<.05"
same,"tumour outcome (control, treated, inhibition, significance)","Carcinogen: N-METHYL-N'-NITRO-N-NITROSOGUANIDINE, 70-25-7, Dose [Inhibitor]: 34 NMOL ONCE 0.5 HR BEFORE CARCINOGEN APPLICATION (STUDY DURATION: 25 WK), Route [Inhibitor]: DERMAL, Species: MOUSE, Strain/Sex: CD-1/FEMALE, Target Tissue: Type of Lesion: SKIN: PAPILLOMA, Dose [Carcinogen]: 5 UMOL IN 0.2 ML ACETONE ONCE 0.5 HR AFTER AGENT TREATMENT, Promoter: 12-O-TETRADECANOYLPHORBOL-13-ACETATE, 16561-29-8","92%, 96%, -4%, not significant"
same,"tumour outcome (control, treated, inhibition, significance)","Carcinogen: N-METHYL-N-NITROSOUREA, 684-93-5, Dose [Inhibitor]: 12.5 MG/KG DAILY IN DIET STARTING 1 D AFTER LAST CARCINOGEN INJECTION AND CONTINUING FOR 256 D (STUDY DURATION: 285 D), Route [Inhibitor]: ORAL, Species: RAT, Strain/Sex: WISTAR-LEWIS/FEMALE, Target Tissue: Type of Lesion: URINARY BLADDER: PAPILLARY UROTHELIAL TUMOR, Dose [Carcinogen]: 1.5 MG IN 0.15 ML SALINE INJECTED INTO A SURGICALLY EXPOSED BLADDER 1/2 WK FOR A TOTAL OF 3 INJECTIONS, Promoter: NONE USED","8/30 (27%), 2/21 (10%), 63%, p<0.05"
